Inhibition in vivo and inhibition data for eleven molecules are collected here from patent publication US5225436A, “Aryl substituted naphthalene derivatives” (Schering Corporation, priority 1991, dated 1993).

Assay [1] concerns anaphylactic bronchospasm (antigen-induced SRS-A mediated bronchoconstriction). In words: Inhibition of anaphylactic bronchospasm in sensitized guinea pigs. The assay is classed as in vivo, guinea pig. Conditions: Cavia porcellus, iv, 0.25 h; for inhibition in vivo at 10 mg/kg: read-out: % Inhibition of anaphylactic bronchospasm. As to the method: The anti-allergy method of this invention is identified by tests which measure a compound's inhibition of anaphylactic bronchospams-in sensitized guinea pigs having antigen-induced SRS-A mediated bronchoconstriction. Allergic bronchospams was measured in actively sensitized guinea pigs by a modification of the procedure of Konzett and Rossler, Arch. Exptl. Pathol. Pharmakol., 194, pp. 71-74 (1940). Male Hartley guinea pigs were sensitized with 5 mg ovalbumin injected ip and 5 mg injected sc in 1 ml saline on day 1 and 5 mg ovalbumin injected ip on day 4. The sensitized animals were used 3-4 weeks later. To measure anaphylactic bronchospasm, sensitized guinea pigs were fasted overnight and the following morning were anesthetized with 0.9 ml/kp ip dialurethane. The trachea and jugular vein were cannulated and the animals were ventilated by a Harvard rodent respirator. A side arm to the tracheal cannula was connected to a Harvard pressure transducer to obtain a continuous measure of intratracheal pressure. An increase in intratracheal pressure was taken as a measure of bronchoconstriction. Each guinea pig was injected iv with 1 mg/kg propranolol, 5 mg/kg indomethacin and 2 mg/kg mepyramine given together in a volume of […]. Fifteen minutes later, the animals were challenged with antigen (0.5 percent ovalbumin) delivered as an aerosol generated from a DeVilbiss Model 65 ultrasonic nebulizer and delivered through the tracheal cannula for 30 seconds. Bronchoconstriction was measured as the peak increase in intratracheal pressure occurring within 15 minutes after antigen challenge.

In assay [2] the target is T1, 5-lipoxygenase (Homo sapiens, UniProt P09917).
T1 construct: Human polymorphonuclear leukocytes (neutrophils) were obtained from normal healthy volunteers; endogenous in cells; host or cells: human blood neutrophils from healthy volunteers
T1 sequence (P09917 1-674): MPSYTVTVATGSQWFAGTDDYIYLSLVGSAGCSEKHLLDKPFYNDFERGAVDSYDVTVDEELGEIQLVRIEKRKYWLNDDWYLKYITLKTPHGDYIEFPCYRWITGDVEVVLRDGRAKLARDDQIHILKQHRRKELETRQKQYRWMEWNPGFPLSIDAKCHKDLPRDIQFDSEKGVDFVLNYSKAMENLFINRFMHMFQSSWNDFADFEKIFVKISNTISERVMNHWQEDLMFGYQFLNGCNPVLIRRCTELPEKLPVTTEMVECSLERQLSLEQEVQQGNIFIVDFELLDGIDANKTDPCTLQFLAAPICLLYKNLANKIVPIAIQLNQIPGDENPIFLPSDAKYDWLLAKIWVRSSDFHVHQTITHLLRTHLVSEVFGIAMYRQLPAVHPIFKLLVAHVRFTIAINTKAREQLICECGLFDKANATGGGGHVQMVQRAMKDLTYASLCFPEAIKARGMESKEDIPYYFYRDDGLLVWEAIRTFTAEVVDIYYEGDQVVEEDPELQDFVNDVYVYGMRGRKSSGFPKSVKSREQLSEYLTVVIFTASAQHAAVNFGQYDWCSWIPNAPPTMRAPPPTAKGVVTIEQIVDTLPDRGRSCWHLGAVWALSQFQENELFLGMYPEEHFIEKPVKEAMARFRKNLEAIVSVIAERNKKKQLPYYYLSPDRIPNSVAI
The experiment in a line: 5-Lipoxygenase assay with human neutrophils. The assay is classed as cell-based. Conditions: 5 min, Human PMN, dose 15 μm (μM). On the procedure: Human polymorphonuclear leukocytes (neutrophils) were obtained from normal healthy volunteers by venipuncture and collected with heparin anticoagulant. Neutrophils were isolated by Dextran/Ficol sedimentation as described (Billah et al., J. Biol. Chem. 260, 6899-6906 (1985)). In brief, 30 ml of blood was mixed with 5 ml of dextran (Sigma) solution and kept at 37° C. for 30 min. The upper white cell-rich layer was removed and 10 ml was layered on 9 ml of Ficol-Paque solution (Pharmacia) and centrifuged at 280 xg for 10 min. at 5° C. The supernatant was removed and the neutrophil pellet was resuspended in HEPES buffer containing 25 mM N-2-hydroxyethylpiperazine-N^1 -2-ethanesulfonic acid HEPES, 125 mM NaCl, 2.5 mM KCl, 0.7 mM MgCl2, […] 10 mM glucose at pH 7.4. The red cells in the suspension were lysed by hypotonic shock. The neutrophils were washed by centrifugation in HEPES buffer two times and finally resuspended at a concentration of 20×10^6 cells/ml in the presence of 1 mM CaCl2.
Neutrophils (0.2 ml of suspension) were preincubated with dimethylsulfoxide (DMSO) vehicle with or without test compound (1 ul) for 4 minutes then incubated for 5 minutes with [^14 C] arachidonic acid (Amersham, 59 Ci/mole) at a 9 uM final concentration, and the calcium ionophore A23187 (Calbiochem) at a 1 uM final concentration. These stimulants were added in 10 ul of water:ethanol (9:1). The reaction was stopped by addition of methanol (0.4 ml), and cellular debris was removed by centrifugation. Aliquots (100 ul) of the incubations were run on a Waters two pump HPLC system fitted with a DuPont Zorbax ODS, 5u, […] Reliance Cartridge column and C18 "Guard Pak". The column was initially eluted at 2 ml/min with 80% of the mixture water:methanol:acetic acid (46:54:0.08) containing 1 mM EDTA adjusted to pH 6.0 with ammonium hydroxide (Pump A) and 20% methanol (Pump B). At 10 minutes, a linear gradient to reach 100% methanol (Pump B) at 27 minutes was established. Between 27 and 28 minutes, methanol was exchanged for the initial eluting solvent and by 35 minutes the column had been reequilibrated for the next sample. The effluent was analyzed by a continuous flow radioactivity monitor (model ROMONA-D) interfaced with a Hewlett Packard Lab Automation System for quantitation of radioactive products. These were predominantly leukotriene B4 (LTB4) which eluted at 7 minutes, and 5-hydroxyeicosatetraenoic acid (5-HETE) which eluted at 20 minutes.

Assay [3] relates to SRS-A / leukotriene release from antigen-challenged, sensitized guinea pig lung. The experiment in a line: Inhibition of SRS-A (leukotriene) release from antigen-challenged, sensitized guinea pig lung. The assay is classed as cell-based. Further details: inhibition: dose or concentration left out as unconfirmed. Conditions: Cavia porcellus. An excerpt: The anti-allergy method of this invention is identified by tests which measure a compound's inhibition of leukotriene release in sensitized guinea pigs. Sensitized guinea pigs are killed by a blow to the head and the lungs removed and cleaned of visible connective tissue, trachea and large blood vessels. The lungs from individual animals are sliced into fragments approximately 1 mm in thickness using a McIlwain tissue chopper and then washed with oxygenated Tyrode's buffer. Weighed aliquots (approximately 400 mg wet weight) of lung are transferred into vials containing 2 ml of fresh Tyrode's solution (containing 10 mM cysteine) and incubated in the presence or absence of test compound for 12 min at 37° C. The tissues are then challenged with 20 μg ovalbumin/ml (final concentration) and incubated for 15 min. To measure leukotriene release, an aliquot of supernatant fluid is extracted with 4 volumes of 100% ethanol. After removal of the precipitated protein, the clear fluid is dried under a stream of N2 gas. The leukotriene content is measured by a radioimmunoassay using [^3 H]LTC4 and antiserum obtained from New England Nuclear. The cross-reactivity of the antiserum for LTD4 is 55%. Percent inhibition of lekotriene release is calculated by comparing for each lung the release in the presence of the test compound to that in the absence of test compound. Representative compounds of the invention at a relative dose of 50 μM of tissue are found to inhibit leukotriene release in the test procedure as indicated below in Table 1: […]

Assay [4] concerns the target T2, 5-lipoxygenase (Mus musculus, UniProt P48999).
T2 construct: The IL-3-dependent murine mast cell clone, MC-9, was used to test the effects; endogenous in cells; host or cells: MC-9 (IL-3-dependent murine mast cell clone)
T2 sequence (P48999 1-674): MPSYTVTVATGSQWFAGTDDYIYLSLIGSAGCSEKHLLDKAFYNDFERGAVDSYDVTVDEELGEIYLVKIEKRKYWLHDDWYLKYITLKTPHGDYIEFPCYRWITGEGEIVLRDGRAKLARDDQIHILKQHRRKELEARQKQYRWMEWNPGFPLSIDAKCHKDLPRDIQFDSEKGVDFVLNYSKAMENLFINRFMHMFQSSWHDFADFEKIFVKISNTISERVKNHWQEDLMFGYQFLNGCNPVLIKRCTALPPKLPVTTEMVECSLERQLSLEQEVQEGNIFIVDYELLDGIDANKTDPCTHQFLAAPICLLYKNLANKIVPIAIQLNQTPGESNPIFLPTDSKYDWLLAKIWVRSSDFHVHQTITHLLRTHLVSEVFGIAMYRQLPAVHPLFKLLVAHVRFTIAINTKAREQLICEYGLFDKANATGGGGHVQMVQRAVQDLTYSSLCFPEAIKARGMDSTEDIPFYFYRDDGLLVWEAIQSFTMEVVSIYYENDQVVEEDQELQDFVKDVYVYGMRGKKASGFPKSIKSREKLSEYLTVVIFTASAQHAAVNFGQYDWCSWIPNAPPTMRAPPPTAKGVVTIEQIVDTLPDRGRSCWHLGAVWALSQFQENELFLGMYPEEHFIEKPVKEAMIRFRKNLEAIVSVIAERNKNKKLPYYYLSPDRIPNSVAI
In words: 5-Lipoxygenase assay (murine mast cell clone MC-9). The assay is classed as cell-based. Conditions: MC9, 5 min, MC-9 cell. On the procedure:
The IL-3-dependent murine mast cell clone, MC-9, was used to test the effects of representative compounds of the invention on lipoxygenase activity. The MC-9 cell line was grown in suspension culture (0.4 to 1.2×10^6 cells/ml) in RPMI 1640 medium (Gibco) with 10% fetal bovine serum (Hyclone) and 2-5% conconavalin-A conditioned supernatant (Musch et. al., (1985) Prostagandins 29, 405-4307. Cells were harvested, washed twice by centrifugation, and resuspended in a Ca^++ -free HEPES buffer (25 mM HEPES, 125 mM NaCl, 2.5 mM KCl 0.7 mM MgCl2, 0.5 mM EGTA and 10 mM glucose at pH 7.4).
MC-9 cells (0.39 ml at 7.5×10^6 cells/ml) were preincubated with dimethylsulfoxide (DMSO) vehicle with or without test compound (1 ul) for 4 minutes then incubated for 5 minutes with [^14 C] arachidonic acid (Amersham, 59 Ci/mole) at a 9 uM final concentration, and A23187 (Calbiochem) at a 1 uM final concentration was added in 10 ul of water:ethanol (9:1). The reaction was stopped by addition of methanol (0.4 ml), and cellular debris was removed by centrifugation. Aliquots (250 ul) of the incubations were run on a Waters two pump HPLC system fitted with a Waters C18, 10 u 8×100 mm u-Bondapak radial compression column and C18 "Guard Pak". The column was initially eluted at 3 ml/min with water:methanol:acetic acid (67:33:0.08) containing 1 mM EDTA adjusted to pH 6.0 with ammonium hydroxide (Pump A). At 4 minutes, a linear gradient to reach 100% methanol (Pump B) at 9 minutes was established. Between 13 and 14 minutes, methanol was exchanged for the initial eluting solvent and by 19 minutes the column had been reequilibrated for the next sample. The effluent was analyzed by a continuous flow radioactivity monitor (model ROMONA-D) interfaced with a Hewlett Packard Lab Automation System for quantitation of radioactive products. These were predominantly leukotriene C4 (LTC4) which eluted at 6 minutes, and 5-hydroxyeicosatetraenoic acid (5-HETE) which eluted at 11 minutes (Musch et. al., supra).

Read-outs that look alike come from different tables or passages of the source.

As for `COc1cc(OC)c2c(c1)C(C)(C)C(c1ccc(OC)c(OC)c1)CC2=NNC(N)=O` (stereo not shown), the inhibition in vivo at 10 mg/kg in assay [1] (Dose 10 mpk) is 20%. Moreover, the inhibition at 15 µM in assay [2] (read-out: % Inhibition 5-HETE) was 2%; in assay [2] (read-out: % Inhibition LTB) it was 0%. In assay [3], the inhibition at 10 µM turned out to be 1%.

Regarding `COc1cc(OC)c2c(c1)C(C)(C)C(c1ccc(OC)c(OC)c1)CCC2=O` (stereo not shown) [drawing 90 [X=O; W=H; J=H]], the inhibition in vivo at 10 mg/kg in assay [1] (Dose 10 mpk) stood at 56%. The inhibition at 15 µM was found to be 51% in assay [2] (read-out: % Inhibition 5-HETE) and 45% in assay [2] (read-out: % Inhibition LTB). For the same molecule, in assay [3] (Dose 30 μm (μM)), the inhibition amounted to 78%.

As to `CC1(C)c2cc(O)cc(O)c2CCC1c1ccc(O)c(O)c1` (stereo not shown), the inhibition at 5 µM in assay [4] (read-out: % Inhibition 5-HETE) was 55%; in assay [4] (read-out: % Inhibition LTC4) it was 52%. In addition, the inhibition at 10 µM in assay [3] was 16%.

`COc1cc(OC)c2c(c1)C(C)(C)C(c1ccc(OC)c(OC)c1)CC2(C)O` (stereo not shown): the inhibition at 5 µM amounted to 0% in assay [4] (read-out: % Inhibition 5-HETE) and 8% in assay [4] (read-out: % Inhibition LTC4).

On to `COc1cc(OC)c2c(c1)C(C)(C)C(c1ccc(OC)c(OC)c1)CC2=NOC(=O)C(C)(C)C` (stereo not shown), for which the inhibition in vivo at 10 mg/kg in assay [1] (Dose 10 mpk) is 20%.

Turning to `CC1(C)c2cc(O)cc(O)c2C(=O)CC1c1ccc(O)c(O)c1` (stereo not shown) [drawing 79 [R3/R4=O; E,G,P,L=OH; J=H; db no]], the inhibition at 2 µM in assay [4] (dose 2 μm, read-out: % Inhibition 5-HETE) amounted to 0%. Also, the inhibition at 50 µM in assay [3] came out at 67%.

Regarding `COc1cc(OC)c2c(c1)C(C)(C)C(c1ccc(OC)c(OC)c1)CC2O` (stereo not shown), the inhibition at 5 µM stood at 5% in assay [4] (read-out: % Inhibition 5-HETE) and 32% in assay [4] (read-out: % Inhibition LTC4).

As to `COc1cc(OC)c2c(c1)C(C)(C)C(c1ccc(OC)c(OC)c1)CC2` (stereo not shown), the inhibition at 5 µM in assay [4] (read-out: % Inhibition 5-HETE) amounted to 35%; in assay [4] (read-out: % Inhibition LTC4), 53%. In addition, the inhibition at 50 µM in assay [3] was determined as 5%.

Regarding `COc1cc(O)c2c(c1)C(C)(C)C(c1ccc(OC)c(OC)c1)CC2=NO` (stereo not shown), in assay [1] (Dose 10 mpk), the inhibition in vivo at 10 mg/kg worked out at 0%. The inhibition at 15 µM in assay [2] (read-out: % Inhibition 5-HETE) was determined as 42%.

`CN(C)C(=O)Oc1cc(OC(=O)N(C)C)c2c(c1)C(C)(C)C(c1ccc(OC(=O)N(C)C)c(OC(=O)N(C)C)c1)=CC2=O`: the inhibition in vivo at 10 mg/kg in assay [1] was 10%.

With `CCOc1cc(OC)cc2c1C(=NO)CC(c1ccc(OC)c(OC)c1)C2(C)C` (stereo not shown), the inhibition in vivo at 3 mg/kg in assay [1] (Dose 3 mpk) amounted to 25%.

What is called inhibition is the share of the control response that was lost under treatment.
